{"source": "ChEMBL document CHEMBL5241128", "about": "“Synthesis of 1-O-acyl- and 1-oxo-kamebanin analogues and their cytotoxic activity” (Bioorg Med Chem Lett, 2023)", "key": {"HL-60": {"test_system": "HL-60", "experiment": "Cytotoxicity against human HL-60 cells assessed as inhibition of cell growth", "assay_type": "functional, cell-based"}, "HCT-116": {"test_system": "HCT-116", "experiment": "Cytotoxicity against human HCT-116 cells assessed as inhibition of cell growth", "assay_type": "functional, cell-based"}}, "note": "pIC50: −log10 of the molar value.", "data": [{"smiles": "C=C1C(=O)[C@@]23[C@@H]4OC(C)(C)O[C@@H]2C[C@@H]2C(C)(C)CC[C@H](OC(=O)CC)[C@@]2(C)[C@@H]3CC[C@@H]14", "values": [{"measurement": "pIC50", "setting": "HL-60", "result": 5.24}, {"measurement": "pIC50", "setting": "HCT-116", "result": 5.16}]}, {"smiles": "C=C1C(=O)[C@@]23[C@H](O)C[C@@H]4C(C)(C)CCC(=O)[C@@]4(C)[C@@H]2CC[C@@H]1[C@H]3O", "values": [{"measurement": "pIC50", "setting": "HL-60", "result": 5.66}, {"measurement": "pIC50", "setting": "HCT-116", "result": 4.96}]}, {"smiles": "C=C1C(=O)[C@@]23[C@@H]4OC(C)(C)O[C@@H]2C[C@@H]2C(C)(C)CC[C@H](OC(=O)CCCCC)[C@@]2(C)[C@@H]3CC[C@@H]14", "values": [{"measurement": "pIC50", "setting": "HL-60", "result": 5.16}, {"measurement": "pIC50", "setting": "HCT-116", "result": 5.17}]}, {"smiles": "C=C1C(=O)[C@@]23[C@H](O)C[C@@H]4C(C)(C)CC[C@H](OC(=O)CCCC)[C@@]4(C)[C@@H]2CC[C@@H]1[C@H]3O", "values": [{"measurement": "pIC50", "setting": "HL-60", "result": 5.70}, {"measurement": "pIC50", "setting": "HCT-116", "result": 5.38}]}, {"smiles": "C=C1C(=O)[C@@]23[C@@H]4OC(C)(C)O[C@@H]2C[C@@H]2C(C)(C)CC[C@H](OC(C)=O)[C@@]2(C)[C@@H]3CC[C@@H]14", "values": [{"measurement": "pIC50", "setting": "HL-60", "result": 4.24}, {"measurement": "pIC50", "setting": "HCT-116", "result": 4.37}]}, {"smiles": "C=C1C(=O)[C@@]23[C@@H]4OC(C)(C)O[C@@H]2C[C@@H]2C(C)(C)CC[C@H](O)[C@@]2(C)[C@@H]3CC[C@@H]14", "values": [{"measurement": "pIC50", "setting": "HL-60", "result": 5.14}, {"measurement": "pIC50", "setting": "HCT-116", "result": 5.12}]}, {"smiles": "C=C1C(=O)[C@@]23[C@H](O)C[C@@H]4C(C)(C)CC[C@H](OC(=O)C(C)(C)C)[C@@]4(C)[C@@H]2CC[C@@H]1[C@H]3O", "values": [{"measurement": "pIC50", "setting": "HL-60", "result": 5.55}, {"measurement": "pIC50", "setting": "HCT-116", "result": 5.37}]}, {"smiles": "C=C1C(=O)[C@@]23[C@@H]4OC(C)(C)O[C@@H]2C[C@@H]2C(C)(C)CC[C@H](OC(=O)C(C)(C)C)[C@@]2(C)[C@@H]3CC[C@@H]14", "values": [{"measurement": "pIC50", "setting": "HL-60", "result": 4.85}, {"measurement": "pIC50", "setting": "HCT-116", "result": 4.46}]}, {"smiles": "C=C1C(=O)[C@@]23[C@@H]4OC(C)(C)O[C@@H]2C[C@@H]2C(C)(C)CC[C@H](OC(=O)CCCC)[C@@]2(C)[C@@H]3CC[C@@H]14", "values": [{"measurement": "pIC50", "setting": "HL-60", "result": 5.11}, {"measurement": "pIC50", "setting": "HCT-116", "result": 5.00}]}, {"smiles": "C=C1C(=O)[C@@]23[C@@H]4OC(C)(C)O[C@@H]2C[C@@H]2C(C)(C)CCC(=O)[C@@]2(C)[C@@H]3CC[C@@H]14", "values": [{"measurement": "pIC50", "setting": "HL-60", "result": 4.44}, {"measurement": "pIC50", "setting": "HCT-116", "result": 4.11}]}, {"smiles": "C=C1C(=O)[C@@]23[C@@H]4OC(C)(C)O[C@@H]2C[C@@H]2C(C)(C)CC[C@H](OC(=O)CCC)[C@@]2(C)[C@@H]3CC[C@@H]14", "values": [{"measurement": "pIC50", "setting": "HL-60", "result": 5.14}, {"measurement": "pIC50", "setting": "HCT-116", "result": 5.41}]}, {"smiles": "C=C1C(=O)[C@@]23[C@H](O)C[C@@H]4C(C)(C)CC[C@H](OC(=O)CCC)[C@@]4(C)[C@@H]2CC[C@@H]1[C@H]3O", "values": [{"measurement": "pIC50", "setting": "HL-60", "result": 5.21}, {"measurement": "pIC50", "setting": "HCT-116", "result": 5.38}]}, {"smiles": "C=C1C(=O)[C@@]23[C@H](O)C[C@@H]4C(C)(C)CC[C@H](OC(C)=O)[C@@]4(C)[C@@H]2CC[C@@H]1[C@H]3O", "values": [{"measurement": "pIC50", "setting": "HL-60", "result": 5.24}, {"measurement": "pIC50", "setting": "HCT-116", "result": 4.89}]}, {"smiles": "C=C1C(=O)[C@@]23[C@H](O)C[C@@H]4C(C)(C)CC[C@H](OC(=O)CC)[C@@]4(C)[C@@H]2CC[C@@H]1[C@H]3O", "values": [{"measurement": "pIC50", "setting": "HL-60", "result": 5.23}, {"measurement": "pIC50", "setting": "HCT-116", "result": 5.01}]}, {"smiles": "C=C1C(=O)[C@@]23[C@H](O)C[C@@H]4C(C)(C)CC[C@H](OC(=O)CCCCC)[C@@]4(C)[C@@H]2CC[C@@H]1[C@H]3O", "values": [{"measurement": "pIC50", "setting": "HL-60", "result": 5.25}, {"measurement": "pIC50", "setting": "HCT-116", "result": 5.40}]}, {"smiles": "COc1cc([C@@H]2c3cc4c(cc3[C@@H](O[C@@H]3O[C@@H]5CO[C@@H](C)O[C@H]5[C@H](O)[C@H]3O)[C@H]3COC(=O)[C@H]23)OCO4)cc(OC)c1O", "note": "[ETOPOSIDE]", "values": [{"measurement": "pIC50", "setting": "HL-60", "result": 4.92}, {"measurement": "pIC50", "setting": "HCT-116", "result": 4.64}]}, {"smiles": "C=C1C(=O)[C@@]23[C@H](O)C[C@@H]4C(C)(C)CC[C@H](O)[C@@]4(C)[C@@H]2CC[C@@H]1[C@H]3O", "note": "[KAMEBANIN]", "values": [{"measurement": "pIC50", "setting": "HL-60", "result": 5.48}, {"measurement": "pIC50", "setting": "HCT-116", "result": 4.92}]}]}
